{"source": "patent US7766979B2", "about": "“Phase transformation in molecular solids” (Avantium International B.V., priority 2004, dated 2010)", "key": {"[1]": {"experiment": "tribochemical treatment (high-energy grinding) with phase detection by X-ray powder diffractometry", "type": "physicochemical", "conditions": "for phase transformation achieved by the process (summary statement): Fritsch Pulverisette 7, hardened steel, as a solid", "description": "The detection of the particular modification/form was conducted with X-ray powder diffractometry: X-ray diffractometer: SToe STADI P transmission diffractometer, CuKα1: 1.54060 Å, linear position-sensitive detector, measurement range 5-40°2Theta, step width 0.01°2Theta, measurement time 960 sec/step.\nHigh-energy mill: Fritsch Pulverisette 7;\nGrinding cup: hardened steel, volume 10 ml; […]\nTemperature control: no temperature control […]\nAmount of substance: 1.0 g"}, "[2]": {"conditions": "cited from earlier work; for phase transformation under mechanical stress (grinding, pressure): conventional grinding or pressure, literature"}, "[3]": {"conditions": "cited from earlier work; for temperature of conversion to the other polymorph: on heating"}, "[4]": {"conditions": "compared with form 1; cited from earlier work"}}, "note": "Read-outs that look alike come from different tables or passages of the source.", "data": [{"smiles": "CCCNC(=O)NS(=O)(=O)c1ccc(Cl)cc1", "note": "[Chlorpropamide form A, Chlorpropamide]", "values": [{"measurement": "phase found after tribochemical treatment", "setting": "[1]; Experiment 3.1: 1.0 g, 800 rpm, 1 hour", "value": "partial transformation to form C"}, {"measurement": "phase transformation achieved by the process (summary statement)", "setting": "[1]; listed as form A", "value": "partly to form C"}, {"measurement": "phase transformation under mechanical stress (grinding, pressure)", "setting": "[2]; listed as form A", "value": "detectable phase transformations under none of the mechanical stresses listed"}]}, {"smiles": "CCCNC(=O)NS(=O)(=O)c1ccc(Cl)cc1", "note": "[Chlorpropamide form C, Chlorpropamide]", "values": [{"measurement": "phase found after tribochemical treatment", "setting": "[1]; Experiment 3.2: 1.0 g, 800 rpm, 15 minutes", "value": "clearly perceptible incipient transformation to form A"}, {"measurement": "phase found after tribochemical treatment", "setting": "[1]; Experiment 3.3: 1.0 g, 800 rpm, 60 minutes", "value": "transformed fully to form A"}, {"measurement": "phase transformation achieved by the process (summary statement)", "setting": "[1]; listed as form C", "value": "fully to form A"}, {"measurement": "thermodynamic stability of the phase", "setting": "[3]; at room temperature (acetazolamide)", "value": "metastable"}, {"measurement": "phase transformation under mechanical stress (grinding, pressure)", "setting": "[2]; listed as form C", "value": "partial phase transformation to form A"}]}, {"smiles": "CC(=O)Nc1nnc(S(N)(=O)=O)s1", "note": "[polymorph 1 of acetazolamide, 5-Acetamido-1,3,4-thiadiazole-2-sulfonamide]", "values": [{"measurement": "phase transformation under mechanical stress (grinding, pressure)", "setting": "[2]; listed as polymorph 1", "value": "not converted back to polymorph 2"}, {"measurement": "storage period without conversion back to polymorph 2", "setting": "[2]; storage", "value": "over 5 years"}]}, {"smiles": "CC(=O)Nc1nnc(S(N)(=O)=O)s1", "note": "[polymorph 2 of acetazolamide, 5-Acetamido-1,3,4-thiadiazole-2-sulfonamide]", "values": [{"measurement": "phase found after tribochemical treatment", "setting": "[1]; Experiment 2.1: 1.0 g, 800 rpm, 1 hour", "value": "converted virtually fully to polymorph 1"}, {"measurement": "phase found after tribochemical treatment", "setting": "[1]; Experiment 2.2: 1.0 g, 800 rpm, 5 minutes", "value": "attributable to the polymorph 2 used"}, {"measurement": "phase found after tribochemical treatment", "setting": "[1]; Experiment 2.3: 1.0 g, 800 rpm, 30 minutes", "value": "polymorph 1 is isolated"}, {"measurement": "phase found after tribochemical treatment", "setting": "[1]; Experiment 2.4: 1.0 g, 800 rpm, 45 minutes", "value": "polymorph 1 is likewise isolated"}, {"measurement": "phase found after tribochemical treatment", "setting": "[1]; Experiment 2.5: 1.0 g, 400 rpm, 30 minutes", "value": "attributable to the polymorph 2 used"}, {"measurement": "phase found after tribochemical treatment", "setting": "[1]; Experiment 2.6: 1.0 g, 400 rpm, 60 minutes", "value": "no phase transformation is observed"}, {"measurement": "phase transformation achieved by the process (summary statement)", "setting": "[1]", "value": "virtually full transformation of polymorph 2 to polymorph 1"}, {"measurement": "temperature of conversion to the other polymorph", "setting": "[3]", "value": "120-148 °C"}, {"measurement": "phase transformation under mechanical stress (grinding, pressure)", "setting": "[2]; listed as polymorph 2", "value": "Nor has the transformation of polymorph 2 to polymorph 1 under mechanical stress been observed"}]}, {"smiles": "Cc1ccnc(NS(=O)(=O)c2ccc(N)cc2)n1", "note": "[sulfamerazine form 1, 2-Sulfanilamido-4-methylpyrimidine]", "values": [{"measurement": "phase found after tribochemical treatment", "setting": "[1]; Example 1.1: 1.0 g, normal atmosphere, 800 rpm, 1 hour, no temperature control", "value": "Virtually full conversion of form 1 to the desired form 2"}, {"measurement": "phase found after tribochemical treatment", "setting": "[1]; Example 1.2: 1.0 g, normal atmosphere, 800 rpm, 5 minutes", "value": "still attributable to form 1"}, {"measurement": "phase found after tribochemical treatment", "setting": "[1]; Example 1.3: 1.0 g, normal atmosphere, 800 rpm, 15 minutes", "value": "still attributable to form 1"}, {"measurement": "phase found after tribochemical treatment", "setting": "[1]; Example 1.4: 1.0 g, normal atmosphere, 800 rpm, 30 min", "value": "all of which are attributable to form 2"}, {"measurement": "phase found after tribochemical treatment", "setting": "[1]; Example 1.5: 10.0 g, 7 balls, 40 ml grinding cup, 800 rpm, 15 minutes", "value": "those of form 1"}, {"measurement": "phase found after tribochemical treatment", "setting": "[1]; Example 1.6: 10.0 g, 7 balls, 40 ml grinding cup, 800 rpm, 30 min", "value": "all of which are attributable to form 2"}, {"measurement": "phase found after tribochemical treatment", "setting": "[1]; Example 1.7: 15.0 g, 2 balls, 40 ml grinding cup, 800 rpm, 120 and 180 min", "value": "formation of form 2"}, {"measurement": "phase transformation achieved by the process (summary statement)", "setting": "[1]", "value": "fully to form 2"}, {"measurement": "phase transformation under mechanical stress (grinding, pressure)", "setting": "[2]", "value": "neither polymorphic form undergoes a transformation"}]}, {"smiles": "Cc1ccnc(NS(=O)(=O)c2ccc(N)cc2)n1", "note": "[sulfamerazine form 2, 2-Sulfanilamido-4-methylpyrimidine]", "values": [{"measurement": "temperature of conversion to the other polymorph", "setting": "[3]", "value": "about 170 °C"}, {"measurement": "hygroscopicity", "setting": "[4]", "value": "less hygroscopic"}, {"measurement": "release of the active ingredient", "setting": "[4]", "value": "releases the sulfamerazine better"}]}]}
